Measurements as given in US20230287217A1, “Zwitterionic Cell-Permeant and Water-Soluble Rhodamine Dyes for Quantitative Imaging Applications” (OREGON HEALTH & SCIENCE UNIVERSITY, priority 2020, published 2023).

Assay: UV-Vis absorption and fluorescence spectroscopy (spectral properties in aqueous media / PBS buffer)
Format: physicochemical
Design: Brightness: unit not given here
Conditions: aqueous media; for FWHMabs (nm): absorption band width; for λabs (nm): absorption maximum; for FWHem (nm): emission band width; for λem (nm): emission maximum; for ε (M^-1 cm-1): extinction coefficient from Beer's Law plots; for ϕ: relative quantum yield, TMR and SiTMR as reference
Method: UV-Vis and fluorescence spectra were collected on a SpectraMax M5 spectrometer with a Microplate reader (Molecular Devices, Sunnyvale, CA). All absorbance spectra were reference corrected. Extinction coefficient was calculated from Beer’s Law plots of absorbance versus concentration. Relative quantum yields are reported using TMR and SiTMR as reference.

Row | SMILES | Brightness | Stokes Shift (nm) | FWHMabs (nm) | λabs (nm) | FWHem (nm) | λem (nm) | ε (M^-1 cm-1) | ϕ
1 | Cc1cc(C(=O)O)ccc1-c1c2cc/c(=[N+](/C)CCCS(=O)(=O)[O-])cc-2oc2cc(N(C)C)ccc12 [OF550COOH, (E)((9-(4-carboxy-2-methylphenyl)-6-(dimethylamino)-3H-xanthenylidene)(methyl)ammonio)propane-1-sulfonate] | 78 | 24 nm | 33 nm | 554 nm | 42 nm | 578 nm | 112,600 M^-1 cm-1 | 0.69
2 | C#Cc1cccc(Nc2ncnc3ccc(NC(=O)CCNC(=O)c4ccc(-c5c6cc/c(=[N+](/C)CCCS(=O)(=O)[O-])cc-6oc6cc(N(C)C)ccc56)c(C)c4)cc23)c1 [OF550Erl(T), (E)((6-(dimethylamino)-9-(4-((3-((4-((3-ethynylphenyl)amino)quinazolin-6-yl)amino)oxopropyl)carbamoyl)-2-methylphenyl)-3H-xanthenylidene)(methyl)ammonio)propane-1-sulfonate] | 7 | 17 nm | 80 nm | 566 nm | 47 nm | 583 nm | 24,500 M^-1 cm-1 | 0.28
3 | Cc1cc(C(=O)NCCCn2cc(-c3cccc(Nc4ncnc5ccccc45)c3)nn2)ccc1-c1c2cc/c(=[N+](/C)CCCS(=O)(=O)[O-])cc-2oc2cc(N(C)C)ccc12 [OF550Erl(UnT), (E)((6-(dimethylamino)-9-(2-methyl-4-((3-(4-(3-(quinazolin-4-ylamino)phenyl)-1H-1,2,3-triazol-1-yl)propyl)carbamoyl)phenyl)-3H-xanthenylidene)(methyl)ammonio)propane-1-sulfonate] | 35 | 25 nm | 35 nm | 560 nm | 44 nm | 585 nm | 50,200 M^-1 cm-1 | 0.69
4 | Cc1cc(C(=O)NCCOCCOCCCCCCCl)ccc1-c1c2cc/c(=[N+](/C)CCCS(=O)(=O)[O-])cc-2oc2cc(N(C)C)ccc12 [OF550HALO, (E)((9-(4-((2-(2-((6-chlorohexyl)oxy)ethoxy)ethyl)carbamoyl)-2-methylphenyl)-6-(dimethylamino)-3H-xanthenylidene)(methyl)ammonio)propane-1-sulfonate] | 53 | 25 nm | 34 nm | 556 nm | 42 nm | 581 nm | 97,200 M^-1 cm-1 | 0.55
5 | Cc1cc(C(=O)NCc2ccc(COc3nc(N)nc4[nH]cnc34)cc2)ccc1-c1c2cc/c(=[N+](/C)CCCS(=O)(=O)[O-])cc-2oc2cc(N(C)C)ccc12 [OF550SNAP, (E)((9-(4-((4-(((2-amino-9H-purin-6-yl)oxy)methyl)benzyl)carbamoyl)-2-methylphenyl)-6-(dimethylamino)-3H-xanthenylidene)(methyl)ammonio)propane-1-sulfonate] | 21 | 24 nm | 38 nm | 556 nm | 43 nm | 580 nm | 59,500 M^-1 cm-1 | 0.36
6 | Cc1cc(C(=O)[O-])ccc1C1=C2C=C/C(=[N+](/C)CCCS(=O)(=O)O)C=C2[Si](C)(C)c2cc(N(C)C)ccc21 [OF650COOH, (E)-3-((10-(4-carboxy-2-methylphenyl)-7-(dimethylamino)-5,5-dimethyldibenzo[b,e]silin-3(5H)-ylidene)(methyl)ammonio)propane-1-sulfonate] | 82 | 22 nm | 34 nm | 650 nm | 42 nm | 672 nm | 200,600 M^-1 cm-1 | 0.41
